Data taken from patent US11058772B2, “(Bacterio)chlorophyll photosensitizers for treatment of eye diseases and disorders” (Yeda Research and Development Co. Ltd., priority 2011, dated 2021).

Columns and labels:
rabbit cornea [1] = assay: Ex-vivo ESR measurements of rabbit corneas; details: cornea strips, 4-POBN 65 mM, ethanol 8%
Protocol: All ESR measurements were carried out using a Magnettech ESR Miniscope MS 100 Spectrometer (Germany), with a Microwave X-band Bridge. The ESR spectrometer operates at 9.3-9.55 GHz, 20 mW microwave power. ESR measurements were carried out at room temperature in glass capillaries or flat cells. Eyes of rabbits were enucleated post mortem. The corneas were de-epithelialized mechanically and corneal strips, 5 mm in width, were cut with a self-constructed double-blade cutter. The strips were immediately immersed for 30 min in solutions containing 4-POBN (65 mM) and ethanol (8%), and either Bchl-S or RF-D. Next, the strips were washed with saline and put in the flat-cells (0.5×5 mm^3) for NIR/UVA illumination followed by ESR measurements with the aforementioned Miniscope.

rabbit cornea [2] = assay: Stress-strain measurements of in-vivo treated corneas
Protocol: Twelve to twenty five weeks old rabbits (2.5-3 Kg weight) were used. They were anesthetized by intramuscular (i.m.) injection of 35 mg/kg ketamine (Rhone Merieux, Lyon, France) and 5 mg/kg xylazine (Vitamed, Binyamina, Israel). Usually, 16 rabbits were assigned for bacteriochlorophyll treatment. After de-epithelialization, one eye of each rabbit was treated topically with a test compound in saline for 10, 20 and 30 minutes using an eye cap (12 mm in diameter), followed by NIR illumination for 10, 20 or 30 minutes (755 nm, 10 mW/cm^2). The other eye served as untreated control. To prevent exposure of the limbal stem cells, the illuminated area was restricted by an aluminum foil mask with an 8 mm diameter central opening. To determine the role of dextran, 12 rabbits were divided into 4 treatment groups of 3 rabbits each: group 1, the Bchl-S group, was treated with a saline solution of a bacteriochlorophyll derivative; group 2, the Bchl-D group, treated with a bacteriochlorophyll-dextran solution. Both groups were incubated with the test compound for 20-min, followed by NIR illumination (755 nm, 10 mW/cm^2) for 30 minutes. Group 3, the RF group, was treated with riboflavin without dextran, and group 4, the RF-D group was treated with RF-dextran solution (RF-D). Both groups were incubated with RF or RF-D solutions for 30-minute, followed by UVA illumination (370 nm, 3 mW/cm^2) for 30 minutes. An ophthalmic ointment containing dexamethasone 0.1%, neomycin and polymixin B (Maxitrol®, Alcon, Belgium) was applied on the treated eyes once daily for two weeks. Four weeks after the treatment the rabbits were sacrificed, and the corneoscleral rings were removed and placed on paraffin hemisphere buttons of matching shape to assure accurate sectioning without stretching the tissue. Corneal strips, 4±0.2 mm in width, were cut from the epithelial side, as described above in the ex-vivo section. The corneal strips were transferred to the biomechanical tester without delay.
(§1) The corneal and scleral strips were clamped horizontally, at a distance of 6 mm, between the jaws of a microcomputer-controlled biomaterial tester (Minimat, Germany) with a 200 Newton force cell (FIG. 1). Controlled tightening of screws was performed with a calibrated screwdriver at a preset torque of 9 cN.m (Torqueleader, England). The strain was increased linearly at a rate of 1.0 mm/min and was measured up to tissue rupture. Young's modulus was calculated by the testing machine. Ultimate stress and Young's modulus were expressed in Mega Pascal (MPa) units.
Corneas of 16 live rabbits were pretreated for 10 (n=4), 20 (n=6) and 30 (n=6) minutes with WST11-S (2.5 mg/ml). NIR illumination (755 nm, 10 mW/cm^2) was then delivered for 30 minutes. […] Results are shown in FIGS. 9A-9B, and in Tables 1 and 2.
To determine the role of dextran, the photochemical treatment with a formulation of WST11 2.5 mg/ml containing 20% dextran T-500 (WST11-D) was examined. Six rabbits were examined: 3 rabbits were pretreated for 20 min with WST11-S solution and 3 with WST11-D solution, followed by NIR illumination for 30 minutes. Additional 4 rabbits were treated with RF (n=2) or RF-D (n=2) for 30 minutes, followed by 30-min UVA irradiation (370 nm, 3 mW/cm^2).

[3] = tested on: rabbit cornea (keratocytes, endothelium), retina; assay: Histology and endothelial staining after in vivo treatment; details: two days after treatment
Protocol: Forty eight hours or 1 week after treatment with Bchl-S, Bchl-D, RF or RF-D, rabbits were euthanized, and the eyes were immediately enucleated and fixated in Davidson's fixative (48 hour post treatment) or in 4% formaldehyde (1 week post treatment). […] sections were prepared from either the whole eye or corneas and stained with hematoxylin-eosin (H&E). The pathology of the corneal and retinal sections was examined. The sections were photographed with a digital video camera (Nikon DS-Ril, Japan), mounted on a light microscope (E-800 Leica, Germany). Keratocyte and endothelial cell densities were counted in 2 areas of 2 central histological sections and calculated, using Image-Pro software (MediaCybernetics, MD, USA). Rabbits underwent analysis of corneal endothelial damage 1 day post treatment, using alizarine red S and trypan blue staining as described in Spence and […], 1976. The treatment included either a 20-minute pretreatment with Bchl-S or Bchl-D solutions, followed by 30-minute irradiation at 755 nm (2 rabbits), or only a 30-minute irradiation at 760 nm (2 rabbits). Contralateral non-treated eyes served as controls. One rabbit underwent treatment with WST11 in saline (WST11-S; 20-minute incubation, 30-minute irradiation at 755 nm). Six rabbits underwent treatment with WS[…] (n=4, 20-minute incubation, 30-minute irradiation at 755 nm), or with RF-D (n=2, 30-minute incubation, 30-minute irradiation at 370 nm) as described above (In-vivo studies section). Contralateral eyes were used as control.

rabbit sclera = assay: Biomechanical testing of rabbit sclera treated ex vivo, NIR illumination through the anterior eye segment; details: 20 min incubation
Protocol: as §1
Six eyes of three rabbits were enucleated. The posterior eye area up to the equatorial line was incubated using an eye cap with 2.5 mg/ml solution of WST11 in saline pH 7.3 for 20 minutes and then illuminated by NIR illumination through the anterior cornea using a diode laser (755 nm, 0.5 W) and three mirror fundus lens (FIGS. 18A-18C) for 30 minutes. Strips of sclera were cut and tested as described in Materials and Methods.

[4] = 20 min pretreatment, saline or 20% dextran T-500 formulation, 30 min NIR
[5] = 30 days, 30 min incubation, 30 min NIR, vs untreated fellow eyes, dipotassium salt
[6] = 30 days, 30 min incubation, 30 min NIR, vs untreated fellow eyes, listed as WST11-S, dipotassium salt
[7] = one month, 10 min incubation, 30 min NIR
[8] = one month, 20 min incubation, 30 min NIR

Which “ESR signals of ROS trapped in the treated cornea” value (rabbit cornea [1]) does the source give for `CCC1C2=Cc3c(C)c(C(=O)NCCS(=O)(=O)[O-])c4[n]3[Pd][n]3c(c(C)c(C(C)=O)c3=CC(=N2)C1C)=CC1=NC(=C4CC(=O)OC)C(CCC(=O)[O-])C1C.[K+].[K+]` (stereo not drawn) [WST11, Palladium 3^1-oxo-15-methoxycarbonylmethyl-rhodobacteriochlorin 13^1-(2-sulfoethyl)amide dipotassium salt] here?
Its value is “no traces of singlet oxygen”.

What about the “increase in Young's modulus compared with untreated corneas of fellow eyes” value (rabbit cornea [2]; [4]) of the same compound?
Its value is “approximately two-fold increase”.

And the “increase in mean ultimate stress compared with untreated corneas of fellow eyes” value (rabbit cornea [2]; [4])?
Its value is “approximately two-fold increase”.

And the “Mean Young's Modulus Intensity” value (rabbit cornea [2]; 30 days, 30 min incubation 2.5 mg/ml, 30 min NIR)?
The value was 32 ± 3.6 MPa.

What about the “Mean ultimate stress Intensity” value (rabbit cornea [2]; 30 days, 30 min incubation 2.5 mg/ml, 30 min NIR 755 nm 10 mW/cm^2) of the same compound?
Its value is 6.91 ± 0.53 MPa.

What about the “Mean Young's Modulus Increase %” value (rabbit cornea [2]; [5]) of the same compound?
The value was 174%.

What about the “Mean ultimate stress Increase %” value (rabbit cornea [2]; [5]) of the same compound?
The value was 111%.

What about the “Mean Young's Modulus Increase %” value (rabbit cornea [2]; [6]) of the same compound?
The value was 173%.

What about the “Mean ultimate stress Increase %” value (rabbit cornea [2]; [6]) of the same compound?
The value was 126%.

What about the “Mean Young's Modulus Intensity” value (rabbit cornea [2]; [7]) of the same compound?
Its value is 13.9 ± 3.9 MPa.

And the “Mean ultimate stress Increase %” value (rabbit cornea [2]; [7])?
The value was 45%.

What about the “Mean ultimate stress Intensity” value (rabbit cornea [2]; [7]) of the same compound?
The value was 4.51 ± 1.85 MPa.

And the “Mean Young's Modulus Increase %” value (rabbit cornea [2]; one month, 10 min incubation, 30 min NIR, dipotassium salt)?
Its value is 9%.

What about the “Mean Young's Modulus Increase %” value (rabbit cornea [2]; one month, 10 min incubation, 30 min NIR, listed as WST11-S, dipotassium salt) of the same compound?
The value was 10%.

What about the “Mean Young's Modulus Increase %” value (rabbit cornea [2]; [8]) of the same compound?
The value was 79%.

And the “Mean Young's Modulus Intensity” value (rabbit cornea [2]; [8])?
Its value is 22.7 ± 3.82 MPa.

What about the “Mean ultimate stress Increase %” value (rabbit cornea [2]; [8]) of the same compound?
Its value is 113%.

What about the “Mean ultimate stress Intensity” value (rabbit cornea [2]; [8]) of the same compound?
Its value is 6.66 ± 0.67 MPa.

What about the “corneal edema (histology)” value [3] of the same compound?
The value was “marked edema”.

And the “keratocytes in stroma (histology)” value [3]?
The value was “reduced number of keratocytes throughout the stroma”.

And the “endothelial cell layer / damage to the endothelium” value ([3]; H&E and vital staining, listed as WST11-S, dipotassium salt)?
Its value is “appeared intact”.

What about the “cornea swelling (thickness)” value ([3]; histology) of the same compound?
Its value is 890 μm.

And the “endothelial counts, treatment vs control” value ([3]; P=0.47)?
The value was “no statistical difference”.

What about the “increase in Young's modulus” value (rabbit sclera; NIR through anterior cornea) of the same compound?
Its value is 54%.

And the “increase in maximal stress” value (rabbit sclera; NIR through anterior cornea)?
The value was 42%.

What about the mean maximal stress (rabbit sclera; NIR through anterior cornea 30 min, control 4.65±1.15) of the same compound?
Its mean maximal stress is 6.59±1.32 MPa.

And the “mean Young's modulus” value (rabbit sclera; NIR through anterior cornea 30 min, control 25.25±5.30)?
Its value is 38.83±6.89 MPa.
